Common to all, as to assay type: in vivo
Data set [1] is described as follows: Ex.3 neuroprotective HIE rat model: body weight. As for the experimental part: Newborn rat pups were assigned to one of the following 6 groups from postnatal day 4: Sham group (n=24), Vehicle group (n=14), E4 1 mg/kg/per day group (n=11), E4 5 mg/kg/per day group (n=14), E4 10 mg/kg/per day group (n=14), or E4 50 mg/kg/per day group (n=19). From postnatal day 4, rat pups were intraperitoneally injected either vehicle (Vehicle group) or E4 (1, 5, 10, or 50 mg/kg/per day in accordance to the E4 group assignment) or neither vehicle nor E4 (Sham group). At day 7, 30 minutes after last injection, animals were anesthetized with isoflurane (induction, 3.0%; maintenance, 1.5%), and the rat pups from Vehicle and E4 groups passed through surgery encompassing left common carotid artery double ligation and cut. After the procedure, the pups were returned to their dams and were allowed to recover for 1 hour. The pups were then placed in the humidified hypoxic in vivo cabinet (CoyLab, Grass Lake, Mich., USA). Hypoxia was produced by the inhalation of 11%-8% of oxygen balanced by nitrogen at decreased concentration of oxygen for 20 minutes, followed by inhalation of 8% oxygen and 92% nitrogen at constant concentration for 35 minutes. All the manipulations were performed at 37° C. The Sham group went through similar procedures without left common carotid artery ligation followed by hypoxia nor injection. Rat pups recovered with their dams and reared normally until being sacrificed at postnatal day 14.
To monitor the post-operative well-being of the rat pups due to the performed manipulations and estetrol pre-treatment, the body weight was monitored from postnatal day 7 to day 14 inclusive.

The nature of data set [2]: Ex.4 therapeutic HIE rat model: rectal temperature. Particulars: E4 1, 5, 10, 50 mg/kg single ip dose after HI at PND7; 0, 2, 4 h after hypoxia. As for the experimental part: The rectal temperature of the rat pups was measured with a multipurpose thermometer (BAT-10R, Physitemp Instruments Inc., Clifton, N.J., US) along with a rectal probe (RET-4, BioMedical Instruments, Zollnitz, Germany) at 0, 2, and 4 hours after exposure to hypoxic insult. To keep the variability of the temperature low, measurements of rectal temperature were made in a 25° C. room 15 min after removal of the pups from the nest (except the 1st post-hypoxic measurement which was done immediately). It has been shown that the rectal temperature corresponds very well to the brain core temperature (Thoresen et al. 1996. Arch Dis Child Fetal Neonatal 74: F3-F9, Yager et al. 1993. Pediatr Res 34: 525-529).
To study the therapeutic effect of estetrol, newborn rat pups were assigned to one of the following 6 groups at postnatal day 7: sham group (n=29), vehicle group (n=20), 1 mg/kg E4 group (n=16), 5 mg/kg E4 group (n=19), 10 mg/kg day E4 (n=17) and 50 mg/kg day E4 group (n=15). At postnatal day 7 animals were anesthetized with isoflurane (induction, 3.0%; maintenance, 1.5%), and the rat pups from vehicle and E4 groups passed through surgery encompassing left common carotid artery double ligation and cut. After surgery, the pups were returned to their dams and allowed to recover for 1 hour. The pups were then placed in a humidified hypoxic in vivo cabinet (CoyLab). […]

In another data set the test system is doublecortin (DCX). Briefly: Ex.8 therapeutic HIE rat model: doublecortin staining. As for the experimental part: To study the therapeutic effect of estetrol, newborn rat pups were assigned to one of the following 14 groups at postnatal day 7 (FIG. 23(B)): Sham group (n=12), Vehicle (n=15), 5 mg/kg/day E4 (n=11), 10 mg/kg/day E4 (n=11), 5 mg/kg/day E4+1.6 mg/kg/day PROG (n=11), 10 mg/kg/day E4+1.6 mg/kg/day PROG (n=11), 5 mg/kg/day E4+16 mg/kg/day PROG (n=11), 10 mg/kg/day E4+16 mg/kg/day PROG (n=13), 5 mg/kg/day E4+136 ng//kg/day E2 (n=11), 10 mg/kg/day E4+136 ng/kg/day E2 (n=11), 5 mg/kg/day E4+1.6 mg/kg/day PROG+136 ng/kg/day E2 (n=12), 10 mg/kg/day E4+1.6 mg/kg/day PROG+136 ng/kg/day E2 (n=11), 5 mg/kg/day E4+16 mg/kg/day PROG+136 ng/kg/day E2 (n=11), 10 mg/kg/day E4+16 mg/kg/day PROG+136 ng/kg/day (n=12) groups. […] After surgery, the pups were returned to their dams and allowed to recover for 1 hour. The pups were then placed in a humidified hypoxic in vivo cabinet (CoyLab). […]
The sections were heated in 10 mmol/L citrate buffer (pH 6.0) at 100° C. for 10 minutes. […] Samples were analyzed with the aid of a microscope (Olympus Vanox AHBT3, Olympus), and the ImageJ software 15 (NIH). The percentage of positively stained cells was quantified as a sum of positively stained either DCX or VEGF cells divided by the total number of DAPI positive cells expressed in percentage.

The record followed here is US9808470B2, “Estrogenic components for use in the treatment of neurological disorders” (UNIVERSITE DE LIEGE, priority 2012, dated 2017).

Consider `C[C@]12CC[C@@H]3c4ccc(O)cc4CC[C@H]3[C@@H]1[C@@H](O)[C@@H](O)[C@@H]2O` [E4, 1,3,5(10)-estratrien-3,15α,16α,17β-tetrol], for which the body weight entry is reported as “significantly higher body weight than the vehicle group” in data set [1] (1 mg/kg ip PND4-7 before HI, PND 10, 11 and 12, vs vehicle); “significantly higher body weight than the vehicle group” in data set [1] (1 mg/kg ip PND4-7 before HI, PND 14, vs vehicle); “sham operated animals body weight was significantly higher” in data set [1] (5 mg/kg ip PND4-7 before HI, PND 8, 9, 10, 12, vs sham); “significantly higher body weight than the vehicle group” in data set [1] (5 mg/kg ip PND4-7 before HI, PND 14, vs vehicle); “significantly higher body weight than the vehicle group” in data set [1] (10 mg/kg ip PND4-7 before HI, PND 9, vs vehicle); “significantly higher body weight than the vehicle group” in data set [1] (10 mg/kg ip PND4-7 before HI, PND 10, 11 and 12, vs vehicle). Moreover, the body weight entry in data set [1] (10 mg/kg ip PND4-7 before HI, PND 14, vs vehicle) is “significantly higher body weight than the vehicle group”; in data set [1] (50 mg/kg ip PND4-7 before HI, PND 8, 9, 10, 12, vs sham) it was “sham operated animals body weight was significantly higher”; in data set [1] (50 mg/kg ip PND4-7 before HI, PND 11, 13, 14, vs sham), “sham operated animals had significantly higher body weight”; in data set [1] (estetrol pre-treated (1, 5, 10, 50 mg/kg) ip PND4-7 before HI, PND 8 and 13, vs vehicle), “significantly higher post-operative body weight than the vehicle pre-treated animals”. Besides, the rectal temperature entry in data set [2] is “did not affect the body temperature”. Also, the “percentage of DCX positively stained cells” value with doublecortin (DCX) (5 mg/kg/day E4, CA2/CA3) was found to be 15.09±12.17%. The “DCX positively stained cell percentage” value with doublecortin (DCX) (5 mg/kg/day E4, hippocampus) came out at 59.73±3.44%.
